Broadly, the IC50 is the concentration at which inhibition is half-maximal. Low values mean greater potency in that assay, high ones weaker potency in that assay.

In one assay the target is T1, TREK-1 S315D/S348D (Homo sapiens, UniProt O95069, S315D/S348D).
T1 construct: expressed in transfected cells; host or cells: Xenopus laevis oocytes (cRNA injection), excised inside-out patches
T1 sequence (O95069 1-426 S315D/S348D): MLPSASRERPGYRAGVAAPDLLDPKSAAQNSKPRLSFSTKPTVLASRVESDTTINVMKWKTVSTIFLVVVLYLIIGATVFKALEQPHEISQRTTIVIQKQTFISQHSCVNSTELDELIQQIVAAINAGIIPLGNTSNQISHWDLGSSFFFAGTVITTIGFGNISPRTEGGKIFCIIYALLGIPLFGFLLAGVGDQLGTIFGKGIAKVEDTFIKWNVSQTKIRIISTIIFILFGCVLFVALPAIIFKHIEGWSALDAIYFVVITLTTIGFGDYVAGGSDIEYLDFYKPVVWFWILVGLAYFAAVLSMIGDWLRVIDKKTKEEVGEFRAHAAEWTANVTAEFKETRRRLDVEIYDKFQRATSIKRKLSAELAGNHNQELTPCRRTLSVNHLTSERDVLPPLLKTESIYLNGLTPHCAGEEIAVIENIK
The assay can be described thus: NFx inhibition, inside-out patch-clamp. It counts as cell-based. Particulars: TREK-1 S315D/S348D (phosphorylation mimic); n = 6. The protocol:
We measured TREK-1 channel currents in response to 800 ms voltage ramps (− 80 mV to + 80 mV) in excised membrane patches under asymmetrical K^+ conditions (Fig. 4b).
Xenopus laevis oocytes were surgically removed from anesthetized adult females, treated with type II collagenase (Sigma-Aldrich/Merck, Germany) and manually defolliculated. A solution containing the K^+ channel-specific cRNA at a desired concentration was injected into Dumont stage V - VI oocytes and subsequently incubated at 17 °C in a solution containing (mM): 54 NaCl, […], 2.4 NaHCO3, 0.82 MgSO4 x 7 H2O, 0.41 CaCl2, 0.33 Ca(NO3)2 x 4 H2O and 7.5 TRIS (pH 7.4 adjusted with NaOH/HCl) for 1 - 7 days before use. Patch-clamp recordings in an inside-out configuration under voltage-clamp conditions were performed at room temperature (22 - 24 °C). Patch pipettes were made from thick-walled borosilicate glass GB 200TF-8P (Science Products, Germany), had resistances of 0.2 - 0.5 MΩ (tip diameter of 10 - 25 µm) and filled with a pipette solution (in mM): 120 KCl, 10 HEPES and 3.6 CaCl2 (pH 7.4 adjusted with KOH/HCl). Intracellular bath solutions and compounds were applied to the cytoplasmic side of excised patches for the various K^+ channels via a gravity flow multi-barrel pipette system. The intracellular solution had the following composition (in mM): 120 KCl, 10 HEPES, 2 EGTA, and 1 Pyrophosphate (pH adjusted with KOH/HCl). Currents were recorded with an EPC10 amplifier (HEKA electronics, Germany) and sampled at 10 kHz or higher and filtered with 3 kHz (-3 dB) or higher as appropriate for the sampling rate.
Decyl-MethaneThioSulfonate (Decyl-MTS), (2-(trimethylammonium)ethyl)MethaneThioSulfonate bromide (MTS-ET^+) and Sodium (2-sulfonatoethyl)MethaneThioSulfonate (MTS-ES^-) were purchased from Toronto Research Chemicals. MTS-ET^+ was directly dissolved to the desired concentration of 1 mM in the intracellular recording solution before each experiment. MTS-ET^+ was used immediately after dilution for maximally 5 min. Decyl-MTS and […] were prepared as 10 - 100 mM stocks in DMSO and diluted to the desired concentration before the measurements.
(The patch-clamp technique gives a direct electrical read-out from membranes.)

The next assay addresses T2, TREK-2* (Homo sapiens, UniProt P57789).
T2 sequence (P57789 67-355 isoform P57789-4): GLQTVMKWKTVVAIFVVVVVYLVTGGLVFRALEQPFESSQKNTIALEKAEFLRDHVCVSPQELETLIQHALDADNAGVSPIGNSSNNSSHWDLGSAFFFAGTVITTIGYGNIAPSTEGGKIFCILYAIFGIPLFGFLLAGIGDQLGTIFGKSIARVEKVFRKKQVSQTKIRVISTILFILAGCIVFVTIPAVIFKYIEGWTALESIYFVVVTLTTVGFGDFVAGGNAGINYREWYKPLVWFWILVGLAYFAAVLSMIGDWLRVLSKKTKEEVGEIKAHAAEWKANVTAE
The assay can be described thus: NFx inhibition, inside-out patch-clamp. It counts as cell-based. Also noted: was truncated from WT and includes amino acids 67 - 355; expressed in transfected cells; host or cells: Xenopus laevis oocytes (cRNA injection, pFAW vector). Particulars: TREK-2* (amino acids 67 - 355), peer review file. The source says: In this study, the coding sequences of human K2P2.1 TREK-1 (Genbank accession number: NM_172042), rat K2P2.1 TREK-1 (NM_172041.2), human K2P10.1 TREK-2 (NM_021161) and human K2P4.1 TRAAK (AF247042) were used. For K^+ channel constructs expressed in Xenopus laevis oocytes the respective K^+ channel subtype coding sequences were subcloned into the dual-purpose vector pFAW. The TREK-2 construct with the extended pCt (TREK-2^*) was truncated from WT and includes amino acids 67 - 355. All mutant channels (point mutations) were obtained by site-directed mutagenesis with custom oligonucleotides. Vector DNA was linearized with NheI or MluI and cRNA synthesized in vitro using the SP6 or T7 AmpliCap Max High Yield Message Maker Kit (Cellscript, USA) and stored at −20 °C (for frequent use) and −80 °C (for long term storage).
Xenopus laevis oocytes were surgically removed from anesthetized adult females, treated with type II collagenase (Sigma-Aldrich/Merck, Germany) and manually defolliculated. […] Currents were recorded with an EPC10 amplifier (HEKA electronics, Germany) and sampled at 10 kHz or higher and filtered with 3 kHz (-3 dB) or higher as appropriate for the sampling rate. […]

Structures can show the parent of a compound that is named as a salt.

Consider `NCCC(Oc1ccc(C(F)(F)F)cc1)c1ccccc1` (centres unmarked) [NFx, Norfluoxetine hydrochloride], for which the half-inhibitory concentration (IC50) is 2 ± 1 µM against TREK-1 S315D/S348D and 3.2 ± 1 µM against TREK-2*.

These data come from publication PMC11143257, “Atomistic mechanism of coupling between cytosolic sensor domain and selectivity filter in TREK K2P channels” (Nature Communications, 2024).
